The subject of data set [1] is Canadida albicans ATCC 64550. Description: In vitro antifungal activity, MIC by broth microdilution (Candida species). It counts as cell-based. Conditions: ATCC64550, lowest concentration causing at least 80% growth inhibition, RPMI1640 pH 7.0, 35° C., 24-72 hours, read-out: MIC value C.a. (1). As for the experimental part: (§1) The antifungal activities of test compounds were assessed according to their minimum inhibitory concentrations (MICs) which were measured by the methods described below.
(§2) 1(i) Measurement Method for Candida Species
(§3) A modified version of the procedure described in Japanese Journal of Medical Mycology, 36, 62 (1995) was used, MICs being determined by the broth microdilution method. Each test compound was dissolved in dimethyl sulfoxide (DMSO). Serial two-fold dilutions of each compound were prepared with DMSO and then final dilutions were prepared with RPMI1640 medium (product of Dainippon Pharmaceutical Co., Ltd.) which was buffered to pH 7.0 with 0.165 M 3-(morpholino)propanesulfonic acid (MOPS). […] Colonies of the test fungi were suspended in physiological saline followed by adjustment to 5.0×10^2 to 2.5×10^3 cells/ml with RPM11640 medium which was buffered to pH 7.0 with 0.165 M MOPS. 100 μl of the fungal suspension were added to each of the wells of microtitre plates and then 100 μl of each diluted test compound were added to one of said wells and mixed with the fungal suspension therein, before incubating at 35° C. for 24-72 hours. […] The MICs were defined as the lowest compound concentrations causing at least 80% growth inhibition when compared with the control.
b) C.a. (1): Canadida albicans ATCC 64550.
Background: Broth dilution looks for growth in wells or tubes with falling amounts of substance.

The subject of data set [2] is Canadida albicans TIMM 3164. The description is as above. Conditions: TIMM3164, lowest concentration causing at least 80% growth inhibition, RPMI1640 pH 7.0, 35° C., 24-72 hours, read-out: MIC value C.a. (2). It counts as cell-based. As for the experimental part: as §1, §2, §3
c) C.a. (2): Canadida albicans TIMM 3164.

The test system of data set [3] is Canadida albicans TIMM 3165. The description is as above. The class given is cell-based. Conditions: TIMM3165, lowest concentration causing at least 80% growth inhibition, RPMI1640 pH 7.0, 35° C., 24-72 hours, read-out: MIC value C.a. (3). On the procedure:
as §1, §2, §3
d) C.a. (3): Canadida albicans TIMM 3165.

The subject of data set [4] is Cryptococcus neoformans TIMM 0362. Kind of data set: In vitro antifungal activity, MIC by broth microdilution (Cryptococcus neoformans). It counts as cell-based. Conditions: TIMM0362, lowest concentration causing at least 50% growth inhibition (absorbance 485 nm), yeast nitrogen base pH 7.0, 35° C., 48-72 hours, read-out: MIC value C.n. As for the experimental part: as §1
1(ii) Measurement Method for Cryptococcus neoformans
A modified version of the Broth Dilution Antifuinal Susceptibility Testing of Yeast; Approved Standard M27-A (Vol. 17, No. 9, June 1997, NCCLS) was used, MICs being determined by the broth microdilution method. Each test compound was dissolved in DMSO. Serial two-fold dilutions of each compound were prepared with DMSO and final dilutions were prepared with yeast nitrogen base medium (product of Difco Laboratories) buffered to pH 7.0 with 0.165 M MOPS. […] Colonies of the test fungi were suspended in physiological saline followed by adjustment to 5.0×10^3 to 2.5×10^4 cells/ml with yeast nitrogen base medium buffered to pH 7.0 with 0.165 M MOPS. 100 μl of the fungal suspension were added to each of the wells of microtitre plates and then 100 μl of each diluted test compound were added to one of said wells and mixed with the fungal suspension therein, before incubating at 35° C. for 48-72 hours. […] The MICs were defined as the lowest compound concentrations causing at least 50% growth inhibition when compared with the control as measured by light absorbance at 485 nm.
e) C.n.: Cryptococcus neoformans TIMM 0362.

Data set [5] deals with Aspergillus fumigatus SANK 10569. Description: In vitro antifungal activity, MIC by broth microdilution (Aspergillus species). The class given is cell-based. Conditions: SANK10569, lowest concentration causing at least 80% growth inhibition, RPMI1640 pH 7.0, 30° C., 24-72 hours, read-out: MIC value A.f. As for the experimental part: The antifungal activities of test compounds were assessed according to their minimum inhibitory concentrations (MICs) which were measured by the methods described below. 1(iii) Measurement Method for Aspergillus Species A modified version of the protocol in Antimicrob. Agents Chemother., 39, 314 (1995) was used, MICs being determined by the broth microdilution method. Test compounds were dissolved in dimethyl sulfoxide (DMSO). Serial two-fold dilutions of each compound were prepared with DMSO and then final dilutions were prepared with RPMI1640 medium (product of Dainippon Pharmaceutical Co., Ltd.) buffered to pH 7.0 with 0.165 M MOPS.

Data set [6] can be described thus: Acid stability test (half-life in 0.01 N HCl). The class given is physicochemical. The settings on record: 0.01 N HCl (pH 2.0), initial 50 μg/ml, 37° C., HPLC, read-out: t1/2, stability in acidic solution. On the procedure:
A small amount of the solution was taken from the reaction solution at predetermined time intervals and the reaction was stopped in these samples by neutralizing with an aqueous sodium hydroxide solution. Quantitative determination of the residual rate of the test compound in the solution was determined by HPLC.
The half-life (t½) of the test compound in 0.01 N HCl was determined according to the following equation using the degradation rate constant kdeg which was determined by semi-logarithmic regression analysis of the residual rate in the solution.

Data set [7] in a line: Oral absorption rate (bioavailability) in SD rats. The class given is in vivo. Conditions: rat, blood; fasted SD rats; oral 20 mg/kg vs intravenous 2 mg/kg in PEG 400; AUCpo(0-48 h)/AUCiv(0-∞), dose-corrected; read-out: BA (bioavailability). On the procedure: A test compound in polyethylene glycol 400 (PEG 400) was administered either orally (4 animals) or intravenously into the caudal vein (3 animals) of SD rats (age 7 weeks) which had fasted overnight. The oral dose of the test compound was 20 mg per kg of rat body weight. The intravenous dose of the test compound injected into the caudal vein was 2 mg per kg of rat body weight. The amount of PEG 400 used was 1 ml per kg of rat body weight for both oral and intravenous administration. The bioavailability (BA) values were calculated according to the following equation using the integrated values of the blood concentration of the test compound up to 48 hours after oral administration [AUCpo(0-48 h)], and the integrated values of the blood concentration extrapolated from 0 to infinite time after intravenous administration into the caudal vein [AUCiv(0-∞)].
BA(%)={[(AUCpo(0-48))/(dosepo)]/[(AUCiv(0-∞))/(doseiv)]}×100
The larger the value of BA, the higher the oral absorption rate. The results for the compound of formula (Ib) of the present invention and those for Comparative Compounds A, B and C are shove in Table 3.

The mark [8] stands for this setting: 0.01 N hydrochloric acid with 30% acetonitrile.

Molecules are shown by their SMILES. Converted amounts (≈) assume the structure as drawn. Where two headings read alike, the source gives them in different places.

The term MIC denotes the lowest concentration found to suppress growth. As to `C[C@@H](S[C@H]1CO[C@H](/C=C/C=C/c2ccc(C#N)cc2F)OC1)[C@](O)(Cn1cncn1)c1ccc(F)cc1F` [Compound (Ib), (2R,3R)-3-[[trans-2-[(1E,3E)-4-(4-Cyano-2-fluorophenyl)-1,3-butadien-1-yl]-1,3-dioxan-5-yl]thio]-2-(2,4-difluorophenyl)-1-(1H-1,2,4-triazol-1-yl)-2-butanol], the MIC in data set [1] was 0.25 µg/mL (≈ 0.461 µM); in data set [2], at most 0.008 µg/mL; in data set [3], 0.063 µg/mL (≈ 0.116 µM); in data set [4], at most 0.008 µg/mL; in data set [5], 0.031 µg/mL (≈ 0.0571 µM). For the same compound, in data set [6] (buffer, 30% acetonitrile), the half-life at 50 μg/ml stood at 6.4 min. Further, the bioavailability in data set [7] worked out at 123%.

Turning to `C[C@@H](S[C@H]1CO[C@H](/C=C/C=C/c2ccc(F)cc2F)OC1)[C@](O)(Cn1cncn1)c1ccc(F)cc1F` [Comparative Compound (B)], the MIC in data set [1] was 0.5 µg/mL (≈ 0.934 µM); in data set [2], 0.031 to 0.063 µg/mL (≈ 0.0579 to 0.118 µM); in data set [3], 0.125 to 0.25 µg/mL (≈ 0.233 to 0.467 µM); in data set [4] it was at most 0.008 µg/mL; in data set [5], 0.125 µg/mL (≈ 0.233 µM). Also, the half-life at 50 μg/ml in data set [6] (setting [8]) was 1.54 min. In data set [7], the bioavailability stood at 6.24%.

Turning to `C[C@@H](S[C@H]1CO[C@H](/C=C/C=C/c2ccc(C#N)cc2)OC1)[C@](O)(Cn1cncn1)c1ccc(F)cc1F` [Comparative Compound (A), (2R,3R)-3-[[trans-2-[(1E,3E)-4-(4-Cyanophenyl)-1,3-butadien-1-yl]-1,3-dioxan-5-yl]thio]-2-(2,4-difluorophenyl)-1-(1H-1,2,4-triazol-1yl)-2-butanol], the MIC was 0.5 to 1 µg/mL (≈ 0.953 to 1.91 µM) in data set [1]; 0.016 µg/mL (≈ 0.0305 µM) in data set [2]; 0.125 to 0.25 µg/mL (≈ 0.238 to 0.477 µM) in data set [3]; 0.016 µg/mL (≈ 0.0305 µM) in data set [4]; 0.031 µg/mL (≈ 0.0591 µM) in data set [5]. Besides, the half-life at 50 μg/ml in data set [6] (setting [8]) was determined as 3.12 min. Moreover, the bioavailability in data set [7] was found to be 50.7%.

Regarding `CC(C[C@H]1CO[C@H](/C=C/C=C/c2ccc(C#N)cc2F)OC1)C(O)(Cn1cncn1)c1ccc(F)cc1F` (some centres unmarked) [Comparative Compound (C)], the half-life at 50 μg/ml in data set [6] (setting [8]) is 2.42 min. For the same compound, the bioavailability in data set [7] was 57.8%.

The values are drawn from patent US6392082B1, “Triazole derivatives having antifungal activity” (Sankyo Company, Limited, priority 1999, dated 2002).
